Patent publication US11242337B2, “Compounds useful for treating gastrointestinal tract disorders” (Ardelyx, Inc., priority 2017, dated 2022)

Columns and labels:
NHE3 [1] = target: T1, NHE3 (Homo sapiens, UniProt P48764); experiment: Cell-based assay of NHE-3 activity (pre-incubation inhibition), human; conditions: human Preincubation; for pIC50: 0-30 μM test compound
T1 construct: expressed in transfected cells
T1 sequence (P48764 26-834): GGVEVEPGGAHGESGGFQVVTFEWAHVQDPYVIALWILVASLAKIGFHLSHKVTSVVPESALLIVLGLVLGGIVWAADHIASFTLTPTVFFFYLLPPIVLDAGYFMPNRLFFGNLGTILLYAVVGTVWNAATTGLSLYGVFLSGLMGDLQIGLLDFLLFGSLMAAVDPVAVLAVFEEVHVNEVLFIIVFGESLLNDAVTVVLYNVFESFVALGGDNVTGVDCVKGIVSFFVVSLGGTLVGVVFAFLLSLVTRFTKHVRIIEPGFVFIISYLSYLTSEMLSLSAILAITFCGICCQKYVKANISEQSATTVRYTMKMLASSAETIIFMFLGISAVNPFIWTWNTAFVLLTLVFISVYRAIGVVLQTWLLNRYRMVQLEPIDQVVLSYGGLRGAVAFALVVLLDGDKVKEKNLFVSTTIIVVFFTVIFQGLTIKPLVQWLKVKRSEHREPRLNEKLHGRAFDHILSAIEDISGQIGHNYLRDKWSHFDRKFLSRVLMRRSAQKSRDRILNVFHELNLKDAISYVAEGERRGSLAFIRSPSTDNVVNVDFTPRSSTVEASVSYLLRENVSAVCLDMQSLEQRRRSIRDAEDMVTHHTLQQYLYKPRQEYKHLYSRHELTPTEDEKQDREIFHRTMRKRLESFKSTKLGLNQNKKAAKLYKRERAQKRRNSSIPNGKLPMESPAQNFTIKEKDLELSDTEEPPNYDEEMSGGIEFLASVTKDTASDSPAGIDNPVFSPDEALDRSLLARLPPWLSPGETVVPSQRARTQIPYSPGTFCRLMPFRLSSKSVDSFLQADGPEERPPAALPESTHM
T1 sequence (Q99653 2-195 partner limits assumed): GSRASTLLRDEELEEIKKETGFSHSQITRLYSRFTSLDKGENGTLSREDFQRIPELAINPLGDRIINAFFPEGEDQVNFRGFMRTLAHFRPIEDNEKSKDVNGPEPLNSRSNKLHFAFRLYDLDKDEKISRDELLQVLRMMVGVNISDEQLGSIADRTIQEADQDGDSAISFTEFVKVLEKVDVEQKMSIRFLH
Method in brief: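 PS120 fibroblasts stably expressing human NHE3 and NHERF2, loaded 30 min at 37 °C with 5 μM BCECF-AM in NH4Cl buffer, then acidified 10 min at room temperature in Na+-free buffer with 0–30 μM compound. Initial rate of BCECF fluorescence ratio change (FLIPR) per minute taken as Na+/H+ activity.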

NHE3 [2] = target: T1, NHE3; experiment: Cell-based assay of NHE-3 activity (persistent inhibition), human; conditions: human Persistence, 60 min incubation then washout
Method in brief: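 PS120 fibroblasts expressing human NHE3 with NHERF2 exposed to 0-30 μM compound for 60 min at RT, then washed out; cells acid-loaded by NH4Cl prepulse with BCECF-AM and Na+-free buffer. Na+-driven pH recovery started 10 min post-washout; initial rate of BCECF ratio change (FLIPR) taken as activity.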

% inhibition (NHE3 [1]) | pIC50 (NHE3 [1]) | % inhibition (NHE3 [2]) | pIC50 (NHE3 [2]) | IC50 (NHE3 [2]) | Compound
A (NHE3 < 40%) | A (NHE3 pIC50 < 6) | A (NHE3 < 40%) | C (NHE3 pIC50 > 7) | – | CN1CCCN([C@H]2Cc3c(C#N)cc(Cl)cc3[C@@H]2Oc2ccc(S(=O)(=O)N[C@H]3CCN(CCOCCNC(=O)NCCCCNC(=O)NCCOCCN4CC[C@H](NS(=O)(=O)c5ccc(O[C@H]6c7cc(Cl)cc(C#N)c7C[C@@H]6N6CCCN(C)CC6)cc5)C4)C3)cc2)CC1 [Example 128, 4-([(1S,2S)-6-Chloro-4-cyano-2-(4-methyl-1,4-diazepan-1-yl)-2,3-dihydro-1H-inden-1-yl]oxy)-N—[(S)-1-(20-[(S)-3-([4-([(1S,2S)-6-chloro-4-cyano-2-(4-methyl-1,4-diazepan-1-yl)-2,3-dihydro-1H-inden-1-yl]oxy)phenyl]sulfonamido)pyrrolidin-1-yl]-7,14-diaxo-3,18-dioxa-6,8,13,15-tetraazaicosyl)pyrrolidin-3-yl]benzenesulfonamide]
A (NHE3 < 40%) | A (NHE3 pIC50 < 6) | A (NHE3 < 40%) | C (NHE3 pIC50 > 7) | – | CN1CCCN([C@H]2Cc3c(C#N)cc(Cl)cc3[C@@H]2Oc2ccc(S(=O)(=O)N[C@@H]3CCN(CCOCCNC(=O)NCCCCNC(=O)NCCOCCN4CC[C@@H](NS(=O)(=O)c5ccc(O[C@H]6c7cc(Cl)cc(C#N)c7C[C@@H]6N6CCCN(C)CC6)cc5)C4)C3)cc2)CC1 [Example 129]
B (40-70%) | C (NHE3 pIC50 > 7) | C (>70%) | – | 100 to 1000 nM | N#Cc1cc(Cl)cc2c1C[C@H](N1C[C@@H]3C[C@H]1CN3)[C@H]2Oc1ccc(S(=O)(=O)N[C@H]2CCN(CCOCCNC(=O)NCCCCNC(=O)NCCOCCN3CC[C@H](NS(=O)(=O)c4ccc(O[C@H]5c6cc(Cl)cc(C#N)c6C[C@@H]5N5C[C@@H]6C[C@H]5CN6)cc4)C3)C2)cc1 [Example 130, 4-([(1S,2S)-2-[(1S,4S)-2,5-Diazabicyclo[2.2.1]heptan-2-yl]-6-chloro-4-cyano-2,3-dihydro-1H-inden-1-yl]oxy)-N—[(S)-1-(20-[(S)-3-[(4-([(1S,2S)-2-[(1S,4S)-2,5-diazabicyclo[2.2.1]heptan-2-yl]-6-chloro-4-cyano-2,3-dihydro-1H-inden-1-yl]oxy)phenyl]sulfonamido)pyrrolidin-1-yl]-7,14-dioxo-3,18-dioxa-6,8,13,15-tetraazaicosyl)pyrrolidin-3-yl]benzenesulfonamide; bis(trifluoroacetic acid)]
C (>70%) | C (NHE3 pIC50 > 7) | C (>70%) | – | 100 to 1000 nM | N#Cc1cc(Cl)cc2c1C[C@H](N1C[C@@H]3C[C@H]1CN3)[C@H]2Oc1ccc(S(=O)(=O)N[C@@H]2CCN(CCOCCNC(=O)NCCCCNC(=O)NCCOCCN3CC[C@@H](NS(=O)(=O)c4ccc(O[C@H]5c6cc(Cl)cc(C#N)c6C[C@@H]5N5C[C@@H]6C[C@H]5CN6)cc4)C3)C2)cc1 [Example 131, 4-([(1S,2S)-2-[(1S,4S)-2,5-Diazabicyclo[2.2.1]heptan-2-yl]-6-chloro-4-cyano-2,3-dihydro-1H-inden-1-yl]oxy)-N—[(R)-1-(20-[(R)-3-([4-([(1S,2S)-2-[(1S,4S)-2,5-diazabicyclo[2.2.1]heptan-2-yl]-6-chloro-4-cyano-2,3-dihydro-1H-inden-1-yl]oxy)phenyl]sulfonamido)pyrrolidin-1-yl]-7,14-dioxo-3,18-dioxa-6,8,13,15-tetraazaicosyl)pyrrolidin-3-yl]benzenesulfonamide; bis(trifluoroacetic acid)]
C (>70%) | C (NHE3 pIC50 > 7) | C (>70%) | C (NHE3 pIC50 > 7) | – | C[C@H]1CN([C@H]2Cc3c(C#N)cc(Cl)cc3[C@@H]2Oc2ccc(S(=O)(=O)N[C@H]3CCN(CCOCCNC(=O)NCCCCNC(=O)NCCOCCN4CC[C@H](NS(=O)(=O)c5ccc(O[C@H]6c7cc(Cl)cc(C#N)c7C[C@@H]6N6CCN[C@@H](C)C6)cc5)C4)C3)cc2)CCN1 [Example 134, 4-([(1S,2S)-6-Chloro-4-cyano-2-[(S)-3-methylpiperazin-1-yl]-2,3-dihydro-1H-inden-1-yl]oxy)-N—[(S)-1-(20-[(S)-3-([4-([(1S,2S)-6-chloro-4-cyano-2-[(S)-3-methylpiperazin-1-yl]-2,3-dihydro-1H-inden-1-yl]oxy)phenyl]sulfonamido)pyrrolidin-1-yl]-7,14-dioxo-3,18-dioxa-6,8,13,15-tetraazaicosyl)pyrrolidin-3-yl]benzenesulfonamide; bis(trifluoroacetic acid)]
C (>70%) | C (NHE3 pIC50 > 7) | C (>70%) | C (NHE3 pIC50 > 7) | – | C[C@H]1CN([C@H]2Cc3c(C#N)cc(Cl)cc3[C@@H]2Oc2ccc(S(=O)(=O)N[C@@H]3CCN(CCOCCNC(=O)NCCCCNC(=O)NCCOCCN4CC[C@@H](NS(=O)(=O)c5ccc(O[C@H]6c7cc(Cl)cc(C#N)c7C[C@@H]6N6CCN[C@@H](C)C6)cc5)C4)C3)cc2)CCN1 [Example 135]
C (>70%) | C (NHE3 pIC50 > 7) | C (>70%) | C (NHE3 pIC50 > 7) | – | C[C@@H]1CN([C@H]2Cc3c(C#N)cc(Cl)cc3[C@@H]2Oc2ccc(S(=O)(=O)N[C@H]3CCN(CCOCCNC(=O)NCCCCNC(=O)NCCOCCN4CC[C@H](NS(=O)(=O)c5ccc(O[C@H]6c7cc(Cl)cc(C#N)c7C[C@@H]6N6C[C@@H](C)N[C@@H](C)C6)cc5)C4)C3)cc2)C[C@H](C)N1 [Example 136]
C (>70%) | C (NHE3 pIC50 > 7) | C (>70%) | C (NHE3 pIC50 > 7) | – | C[C@@H]1CN([C@H]2Cc3c(C#N)cc(Cl)cc3[C@@H]2Oc2ccc(S(=O)(=O)N[C@@H]3CCN(CCOCCNC(=O)NCCCCNC(=O)NCCOCCN4CC[C@@H](NS(=O)(=O)c5ccc(O[C@H]6c7cc(Cl)cc(C#N)c7C[C@@H]6N6C[C@@H](C)N[C@@H](C)C6)cc5)C4)C3)cc2)C[C@H](C)N1 [Example 137, 4-([(1S,2S)-6-Chloro-4-cyano-2-[(3S,5R)-3,5-dimethylpiperazin-7-yl]-2,3-dihydro-1H-inden-1-yl]oxy)-N—[(R)-1-(20-[(R)-3-([4-([(1S,2S)-6-chloro-4-cyano-2-[(3S,5R)-3,5-dimethylpiperazin-1-yl]-2,3-dihydro-1H-inden-1-yl]oxy)phenyl]sulfonamido)pyrrolidin-1-yl]-7,14-dioxo-3,18-dioxa-6,8,13,15-tetraazaicosyl)pyrrolidin-3-yl]benzenesulfonamide; bis(trifluoroacetic acid)]
C (>70%) | C (NHE3 pIC50 > 7) | C (>70%) | C (NHE3 pIC50 > 7) | – | N#Cc1cc(Cl)cc2c1C[C@H](N1CCNCC1)[C@H]2Oc1ccc(S(=O)(=O)N[C@@H]2CCN(C(=O)CCCNC(=O)NCCCCNC(=O)NCCCC(=O)N3CC[C@@H](NS(=O)(=O)c4ccc(O[C@H]5c6cc(Cl)cc(C#N)c6C[C@@H]5N5CCNCC5)cc4)C3)C2)cc1 [Example 142, 4-([(1S,2S)-6-Chloro-4-cyano-2-(piperazin-1-yl)-2,3-dihydro-1H-inden-1-yl]oxy)-N—[(R)-1-(18-[(R)-3-([4-([(1S,2S)-6-chloro-4-cyano-2-(piperazin-1-yl)-2,3-dihydro-1H-inden-1-yl]oxy)phenyl]sulfonamido)pyrrolidin-1-yl]-6,13,18-trioxo-5,7,12,14-tetraazaoctadecanoyl)pyrrolidin-3-yl]benzenesulfonamide]
C (>70%) | C (NHE3 pIC50 > 7) | A (NHE3 < 40%) | C (NHE3 pIC50 > 7) | – | N#Cc1cc(Cl)cc2c1C[C@H](N1CCNCC1)[C@H]2Oc1ccc(S(N)(=O)=O)cc1 [Example 146, 4-([(1S,2S)-6-Chloro-4-cyano-2-(piperazin-1-yl)-2,3-dihydro-1H-inden-1-yl]oxy)benzenesulfonamide]
